The results in this text go back to patent US11292782B2, “Diarylhydantoin compounds and methods of use thereof” (Nuvation Bio Inc., priority 2018, dated 2022).

Holding throughout (type): cell-based
Experiment [1] addresses T1, Human AR (Homo sapiens (Human), UniProt P10275). Description: AR agonist assay (GRE-LUC luciferase, transfected HEK-293 cells, test article alone). As to conditions: HEK-293 transfected with human AR, read-out: AR Agonist IC50. As to the method: (§1) Human AR cDNA cloned into pCMV vector, GRE-LUC, and CMV-renilla-LUC were used to transfect cells. HEK-293 cells (ATCC) were plated at 120,000 cells per well of a 24 well plate in DME+5% csFBS (Fisher Scientific, Waltham, Mass.). The cells were transfected using Lipofectamine (Life Technologies, Carlsbad, Calif.) with 0.25 μg GRE-LUC, 0.010 μg CMV-LUC (renilla luciferase) and 25 ng of the AR. […] Luciferase assay was performed 48 hrs after transfection. Firefly luciferase assay values were normalized to renilla luciferase values and were graphed using graphpad prism software (La Jolla, Calif.). […] The IC50 or EC50 values were determined using non-linear regression and […] logistics fitting.

In experiment [2] the target is T1, Human AR. Description: AR antagonist assay (GRE-LUC luciferase, transfected HEK-293 cells, with 0.1 nM R1881). To be noted: for IC50: with 0.1 nM R1881. As to the method:
as §1

The target of a further experiment is GR (Homo sapiens (Human), UniProt P04150). Nature of the experiment: GR antagonist assay (GRE-LUC luciferase, transfected COS-7 cells, with 0.1 nM dexamethasone). To be noted: in the presence of 0.1 nM dexamethasone. As to the method:
COS-7 cells (ATCC, Manassas, Va.) were plated in 24 well plates in DME+5% csFBS without phenol red at 70,000 cells/well. Once the cells attached to the plates (typically after overnight incubation after plating), they were transfected in OPTIMEM medium (Life Technologies) using lipofectamine reagent (Life Technologies) with 0.25 μg GRE-LUC, 25 ng pCR3.1 GR, and 10 ng CMV-renilla LUC per well. Twenty-four hours after transfection, the cells were fed with DME+5% csFBS without phenol red (Fisher Scientific, Waltham, Mass.) and treated with the test compounds (1 pM to 10 μM dose range) in the presence of 0.1 nM dexamethasone (Sigma, St. Louis, Mo.). Sixteen to twenty-four hours after treatment, a luciferase assay was performed using the Dual Luciferase assay kit (Promega, Madison, Wis.). Firefly luciferase values were normalized to Renilla luciferase numbers.

A further experiment relates to LNCaP-abl cells. Nature of the experiment: Cell proliferation assay, LNCaP-abl (CellTiter-Glo). As to conditions: 72 h, 3 days; for activity at 3 µM: read-out: cell proliferation, % of vehicle at 3 μM; for activity at 10 µM: read-out: cell proliferation, % of vehicle at 10 μM. As to the method:
LNCaP-abl (3,000 cells/well, received from Dr. Myles Brown, Dana Farber Cancer Institute), 22RV1 (1,000 cells/well), LNCaP (5,000 cells/well), or COS (3,000 cells/well) cells were plated in 96 well plates in 50 μl RPMI+10% FBS (Fisher Scientific, Waltham, Mass.). LNCaP, COS, and 22RV1 cells were obtained from ATCC. Cells were treated in RPMI+10% FBS with test articles, ranging from 1 nM to 10 μM. Three days later, viable cells (LNCaP-abl, 22RV1, and COS) were measured by CellTiter-Glo assay (Promega, Madison, Wis.). For LNCaP cells, medium containing test article was changed after 3 days of treatment, and after an additional 3 days of culture, viable cells were measured by CellTiter-Glo assay.
The LNCaP cell line is androgen responsive with AR and PSA expression. It contains a T877A mutation in the AR. The 22RV1 cell line is positive for AR and PSA with additional AR splice variants and is insensitive to androgen for cell proliferation. The LNCaP-abl cell line expresses both AR and GR but is insensitive to androgen for cell proliferation. COS-7 is used as an AR negative cell line in this experiment.
On the technique in general: In ATP-based viability assays light output follows the ATP content of the culture.

For another experiment, the target named is GFP-AR (Homo sapiens (Human), UniProt P10275). As to the method:
COS cells plated in chamber slides in DME+5% csFBS without phenol red were transfected with […] GFP-AR using lipofectamine reagent.

Structures are written as SMILES.

T1 sequence (P10275 whole entry): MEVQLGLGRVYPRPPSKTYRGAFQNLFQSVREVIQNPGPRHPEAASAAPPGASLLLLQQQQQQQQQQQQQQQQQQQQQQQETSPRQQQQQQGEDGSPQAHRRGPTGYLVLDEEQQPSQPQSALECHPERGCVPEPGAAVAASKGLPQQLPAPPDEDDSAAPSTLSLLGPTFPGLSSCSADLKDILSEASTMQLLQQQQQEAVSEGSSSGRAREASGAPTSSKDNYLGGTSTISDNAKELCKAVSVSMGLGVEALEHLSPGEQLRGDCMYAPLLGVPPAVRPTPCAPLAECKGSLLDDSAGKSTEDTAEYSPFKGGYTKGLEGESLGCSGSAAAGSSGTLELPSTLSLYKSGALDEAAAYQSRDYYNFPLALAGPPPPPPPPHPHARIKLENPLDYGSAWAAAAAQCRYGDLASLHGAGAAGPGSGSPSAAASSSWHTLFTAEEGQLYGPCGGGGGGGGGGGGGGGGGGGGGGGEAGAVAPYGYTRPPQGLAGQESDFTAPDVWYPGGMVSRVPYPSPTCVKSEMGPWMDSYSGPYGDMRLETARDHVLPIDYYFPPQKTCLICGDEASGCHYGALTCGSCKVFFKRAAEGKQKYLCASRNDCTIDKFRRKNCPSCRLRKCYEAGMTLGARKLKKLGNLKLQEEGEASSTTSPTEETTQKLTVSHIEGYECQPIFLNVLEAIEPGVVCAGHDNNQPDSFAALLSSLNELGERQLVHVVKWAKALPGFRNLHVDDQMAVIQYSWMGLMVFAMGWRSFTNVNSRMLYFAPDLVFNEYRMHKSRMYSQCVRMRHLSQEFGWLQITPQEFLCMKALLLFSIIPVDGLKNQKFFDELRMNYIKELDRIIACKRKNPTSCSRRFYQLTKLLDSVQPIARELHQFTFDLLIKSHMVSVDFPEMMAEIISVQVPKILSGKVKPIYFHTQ
Sequence of GR (P04150 whole entry): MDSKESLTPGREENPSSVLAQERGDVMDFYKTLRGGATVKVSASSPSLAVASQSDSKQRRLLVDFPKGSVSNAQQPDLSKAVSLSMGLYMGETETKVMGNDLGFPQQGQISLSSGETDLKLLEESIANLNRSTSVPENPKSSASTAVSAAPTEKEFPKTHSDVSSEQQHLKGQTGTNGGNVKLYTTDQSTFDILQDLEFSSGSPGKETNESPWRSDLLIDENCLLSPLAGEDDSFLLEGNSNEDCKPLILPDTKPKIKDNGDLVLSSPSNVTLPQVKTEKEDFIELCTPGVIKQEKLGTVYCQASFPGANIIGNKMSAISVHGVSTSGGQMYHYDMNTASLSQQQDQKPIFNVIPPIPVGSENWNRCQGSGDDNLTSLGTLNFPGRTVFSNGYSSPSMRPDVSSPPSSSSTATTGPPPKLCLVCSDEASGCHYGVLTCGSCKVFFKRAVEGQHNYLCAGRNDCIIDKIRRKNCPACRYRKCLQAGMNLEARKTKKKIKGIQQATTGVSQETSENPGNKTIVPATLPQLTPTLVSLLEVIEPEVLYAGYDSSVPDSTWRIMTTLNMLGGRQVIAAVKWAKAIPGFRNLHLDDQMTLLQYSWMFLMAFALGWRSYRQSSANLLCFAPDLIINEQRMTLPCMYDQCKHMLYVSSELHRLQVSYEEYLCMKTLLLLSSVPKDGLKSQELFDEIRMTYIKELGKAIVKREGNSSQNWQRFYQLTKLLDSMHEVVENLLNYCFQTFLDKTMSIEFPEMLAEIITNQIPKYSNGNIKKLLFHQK
Sequence of GFP-AR (P10275 whole entry, looked up): as the sequence (P10275 whole entry) above

Usually IC50 stands for the point on the concentration scale where inhibition reaches its midpoint. As to `CC(C)(C)C(=O)NCc1ccc(N2C(=S)N(c3ccc(C#N)c(C(F)(F)F)c3)C(=O)C2(C)C)cc1F` [Compound 6], at Human AR [1], the EC50 is more than 10000 nM. For the same compound, at Human AR [2], the midpoint of inhibition, the IC50, lay at 778 nM. Besides, on GR, the IC50 was more than 10000 nM. For the same compound, in the experiment with LNCaP-abl cells, the activity at 3 µM stood at 79% and the activity at 10 µM is 101%.
With `CC1(C)C(=O)N(c2ccc(C#N)c(C(F)(F)F)c2)C(=S)N1c1ccc(CNC(=O)c2ncccn2)cc1` [Compound 19], the EC50 at Human AR [1] was more than 10000 nM. Moreover, the figures for the IC50 on Human AR [2] and at GR were 453 nM and more than 10000 nM, respectively.
`Cn1ccnc1C(=O)NCc1ccc(N2C(=S)N(c3ccc(C#N)c(C(F)(F)F)c3)C(=O)C2(C)C)cc1F` [Compound 4]: the EC50 at Human AR [1] was more than 10000 nM. Moreover, the IC50 against Human AR [2] was found to be 386 nM.
Consider `C[C@]1(O)CC[C@H]2[C@@H]3CCC4=CC(=O)CCC4=C3C=C[C@@]21C` [Compound R1881, reference compound], for which, on GFP-AR, the “AR localization (cytoplasmic or nuclear)” value is “nuclear”.
One may read the inhibition as the drop in the measured response relative to a control, in per cent. `Cc1ncc(C(=O)NCc2ccc(N3C(=S)N(c4ccc(C#N)c(C(F)(F)F)c4)C(=O)C3(C)C)cc2F)s1` [Compound 45] showed an inhibition at 1 µM on Human AR [2] (HEK293) of 95%. The IC50 on Human AR [2] stood at 99 nM. Besides, on GR, the IC50 is more than 10000 nM. In the experiment on LNCaP-abl cells, the activity at 3 µM was determined as 100% and the activity at 10 µM stood at 66%.
Turning to `Cc1ncsc1C(=O)NCc1ccc(N2C(=S)N(c3cnc(C#N)c(C(F)(F)F)c3)C(=O)C2(C)C)cc1Cl` [Compound 38], the figures for the IC50 on Human AR [2] and on GR were 240 nM and more than 10000 nM, respectively. The activity at 3 µM in the experiment on LNCaP-abl cells came out at 59%. The activity at 10 µM in the experiment on LNCaP-abl cells was found to be 56%.
In the case of `CC1(C)C(=O)N(c2ccc(C#N)c(C(F)(F)F)c2)C(=S)N1c1ccc(CNC(=O)C2CC2)c(F)c1` [Compound 11], on Human AR [2], the IC50 came to 120 nM. Further, the IC50 on GR was more than 10000 nM. In the experiment with LNCaP-abl cells, the activity at 3 µM turned out to be 103% and the activity at 10 µM came out at 79%.
On Human AR [2], `CC(C)C(=O)NCc1ccc(N2C(=S)N(c3ccc(C#N)c(C(F)(F)F)c3)C(=O)C2(C)C)cc1F` [Compound 7] came in with an IC50 of 180 nM. Further, the 50% inhibitory concentration (IC50) on GR was more than 10000 nM. In the experiment on LNCaP-abl cells, the activity at 3 µM came to 67% and the activity at 10 µM is 73%.
Turning to `Cc1ncsc1C(=O)NCc1ccc(N2C(=S)N(c3ccc(C#N)c(F)c3)C(=O)C2(C)C)cc1F` [Compound 68], the half-inhibitory concentration (IC50) against Human AR [2] amounted to 120 nM. On GR (10 μM), the “GR antagonist assay, % of vehicle” value stood at 84%. In the experiment on LNCaP-abl cells, the activity at 3 µM was determined as 89% and the activity at 10 µM stood at 85%.
Turning to `CC1(C)C(=O)N(c2ccc(C#N)c(C(F)(F)F)c2)C(=O)N1c1ccc(CNC(=O)c2cccnc2)c(F)c1` [Compound 29], the concentration for half-maximal inhibition (IC50) against Human AR [2] is 910 nM. For the same compound, the IC50 on GR is more than 10000 nM. In the experiment on LNCaP-abl cells, the activity at 3 µM was 90% and the activity at 10 µM is 92%.
With `Cn1ccnc1C(=O)NCc1ccc(N2C(=O)N(c3ccc(C#N)c(C(F)(F)F)c3)C(=O)C2(C)C)cc1F` [Compound 1], at Human AR [1], the EC50 was more than 10000 nM. The compound also registered an IC50 against Human AR [2] of 968 nM.
Compound `Cc1ncsc1C(=O)NCc1ccc(N2C(=S)N(c3ccc(C#N)c(C(F)(F)F)c3)C(=O)C2(C)C)cc1Cl` [Compound 32] displayed an IC50 against Human AR [2] of 120 nM. Also, at GR, the IC50 is more than 10000 nM. Further, in the experiment with LNCaP-abl cells, the activity at 3 µM was determined as 93% and the activity at 10 µM came to 62%.
Turning to `Cc1ncsc1C(=O)NCc1ccc(N2C(=S)N(c3cccc(C(F)(F)F)c3)C(=O)C2(C)C)cc1F` [Compound 76, N-(4-(5,5-dimethyl-4-oxo-2-thioxo-3-(3-(trifluoromethyl)phenyl)-imidazolidin-1-yl)-2-fluorobenzyl)-4-methylthiazole-5-carboxamide], on Human AR [2], the IC50 is more than 10000 nM. Further, on GR, the IC50 was found to be 3310 nM. In the experiment on LNCaP-abl cells, the activity at 3 µM is 72% and the activity at 10 µM stood at 88%.
Compound `Cc1ncsc1C(=O)NCc1ccc(N2C(=S)N(c3ccc(C#N)c(C(F)(F)F)c3)C(=O)C23CCC3)cc1F` [Compound 65] gave an IC50 against Human AR [2] of 64 nM. Also, the IC50 on GR was more than 10000 nM. In the experiment on LNCaP-abl cells, the activity at 3 µM was 94% and the activity at 10 µM came to 83%.
The compound `CC1(C)C(=O)N(c2ccc(C#N)c(C(F)(F)F)c2)C(=S)N1c1ccc(CNC(=O)c2cncnc2)c(F)c1` [Compound 15] had an IC50 against Human AR [2] of 320 nM. Besides, the IC50 at GR was more than 10000 nM. In addition, in the experiment on LNCaP-abl cells, the activity at 3 µM was 81% and the activity at 10 µM was determined as 70%.
For `CC1(C)C(=O)N(c2ccc(C#N)c(F)c2)C(=S)N1c1ccc(CNC(=O)c2ccccn2)c(F)c1` [Compound 69], the IC50 against Human AR [2] was determined as 380 nM. Further, the half-inhibitory concentration (IC50) at GR is more than 10000 nM. For the same compound, in the experiment with LNCaP-abl cells, the activity at 3 µM was 77% and the activity at 10 µM worked out at 81%.
For the compound `CC1(C)C(=O)N(c2ccc(C#N)c(C(F)(F)F)c2)C(=S)N1c1ccc(CNC(=O)c2cccnc2)c(F)c1` [Compound 12], the EC50 at Human AR [1] is more than 10000 nM. For the same compound, the midpoint of inhibition against Human AR [2], the IC50, lay at 108 nM. The IC50 at GR was more than 10000 nM. Also, in the experiment with LNCaP-abl cells, the activity at 3 µM is 95% and the activity at 10 µM amounted to 61%.
Regarding `Cn1cncc1C(=O)NCc1ccc(N2C(=S)N(c3ccc(C#N)c(C(F)(F)F)c3)C(=O)C2(C)C)cc1F` [Compound 44], the half-maximal inhibitory concentration (IC50) on Human AR [2] came to 120 nM. Moreover, at GR, the 50% inhibitory concentration (IC50) is more than 10000 nM. Also, in the experiment on LNCaP-abl cells, the activity at 3 µM was 87% and the activity at 10 µM was determined as 71%.
On to `CC1(C)C(=O)N(c2ccc(C#N)c(C(F)(F)F)c2)C(=S)N1c1ccc(CNC(=O)c2cncs2)cc1` [Compound 18], for which the EC50 on Human AR [1] is more than 10000 nM. Besides, the results for the half-maximal inhibitory concentration (IC50) against Human AR [2] and at GR were 358 nM and more than 10000 nM, respectively.
Take `CC1(C)C(=O)N(c2ccc(C#N)c(C(F)(F)F)c2)C(=S)N1c1ccc(CNC(=O)c2cncs2)c(Cl)c1` [Compound 25]: the IC50 at Human AR [2] stood at 99 nM. In addition, the IC50 on GR was more than 10000 nM. Also, in the experiment with LNCaP-abl cells, the activity at 3 µM worked out at 96% and the activity at 10 µM was 64%.
For `CC1(C)C(=O)N(c2ccc(C#N)c(C(F)(F)F)c2)C(=S)N1c1ccc(CNC(=O)c2cncs2)c(F)c1` [Compound 5], the IC50 on Human AR [2] was 93 nM; at GR, more than 10000 nM. Besides, in the experiment with LNCaP-abl cells, the activity at 3 µM stood at 99%. Further, in the experiment on LNCaP-abl cells, the activity at 10 µM came out at 96%.
For `CC1(C)C(=O)N(c2ccc(C#N)c(C(F)(F)F)c2)C(=S)N1c1ccc(CNC(=O)c2nccs2)c(F)c1` [Compound 2], the results for the IC50 at Human AR [2] and on GR were 31 nM and more than 10000 nM, respectively. For the same compound, the activity at 3 µM in the experiment on LNCaP-abl cells was found to be 78%. In the experiment on LNCaP-abl cells, the activity at 10 µM is 71%.
